Experimental findings from patent US11559538B2, “Substituted 1,2-oxaborolan-2-ols as PDE4 inhibitors” (Pfizer Inc., priority 2018, dated 2023) are described below.

One data set deals with IL-4. Kind of data set: Cytokine assay: IL-4 release from PHA-L stimulated human PBMCs. Type of data set: cell-based. The following applies: Homo sapiens, PBMC, read-out: IL4 IC50. The gist of the method:
(§1)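 PBMC thaw, ~250k cells/well; cpd pre-incubation ~10 min RT; PHA-L 3.5 μg/mL final; 48 h, 37° C, 5% CO2; supernatant HTRF; IC50 by 4-parameter logistic.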

For another data set, the system named is IFNγ. As to the kind of experiment: Cytokine assay: IFNγ release from PHA-L stimulated human PBMCs. The following applies: Homo sapiens, PBMC. Type of data set: cell-based. The gist of the method: as §1
Data set [1] deals with PDE4B (aa 152-484, Uniprot ID Q07343) (Homo sapiens (Human), UniProt Q07343). Kind of data set: PDE4 SPA assay (scintillation proximity assay). Type of data set: biochemical. The following applies: read-out: PDE4B2 IC50. The method, boiled down:
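PDE4B (aa 152-484, ~81.6 pM) preincubated ~10 min with compound, then 1 μM ³H/unlabeled cAMP added in Tris pH 7.5, 1.3 mM MgCl2, 0.004% Brij 35, ~2% DMSO; 30 min at RT. Product captured on SPA beads and counted; IC50 by four-parameter logistic fit.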
In general terms: Scintillation proximity formats need no separation of bound from free tracer.

The nature of data set [2]: In-vitro skin permeation study (Franz cell assay). Type of data set: in vitro ADME. The following applies: N=15 (3 skin donors, 5 replicates per donor). The procedure:
Topical formulations prepared containing Example 4 that were tested for skin permeability and maximum flux of Example 4 are listed in Table 13.
A higher driving force can be achieved via incorporation into the formulations of additional penetration enhancers such as oleyl alcohol.

In the next data set the test system is IL-13. As to the kind of experiment: Cytokine assay: IL-13 release from PHA-L stimulated human PBMCs. The following applies: Homo sapiens, PBMC, read-out: IL13 IC50. Type of data set: cell-based. The method, boiled down: as §1
[3] abbreviates: 0.01% Example 4 ointment formulation from Table 13.
[4] abbreviates: 0.1% Example 4 ointment formulation from Table 13.
[5] abbreviates: 1% Example 4 ointment formulation from Table 13.

Chain of PDE4B (aa 152-484, Uniprot ID Q07343) (Q07343 324-656): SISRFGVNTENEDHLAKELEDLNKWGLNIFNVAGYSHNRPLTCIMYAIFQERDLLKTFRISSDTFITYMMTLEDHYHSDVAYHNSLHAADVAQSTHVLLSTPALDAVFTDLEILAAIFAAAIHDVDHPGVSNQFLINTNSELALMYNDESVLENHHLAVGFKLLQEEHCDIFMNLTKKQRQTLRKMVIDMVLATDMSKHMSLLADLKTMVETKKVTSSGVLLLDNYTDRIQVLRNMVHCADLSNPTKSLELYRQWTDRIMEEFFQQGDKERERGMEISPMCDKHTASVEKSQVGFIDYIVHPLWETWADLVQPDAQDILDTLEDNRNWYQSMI

Turning to `CCCOc1cc(-c2cncc([C@@H]3COB(O)C3)c2)ccc1OC` [Example 4, (R) 4-(5-(4-methoxy-3-propoxyphenyl)pyridin-3-yl)-1,2-oxaborolan-2-ol], the IC50 (in general, the concentration that inhibits the measured activity by half) amounted to 4.11 nM in the data set with IL-4, 1.06 nM in the data set with IFNγ, 0.5 nM in data set [1] and 135 nM in the data set with IL-13. The “Mean, Cumulative Amount in 24 hours” value is recorded as 233.0 ng in data set [2] (setting [3]), 1089.9 ng in data set [2] (setting [4]) and 3357.7 ng in data set [2] (setting [5]). Besides, the results for the “Mean, Max. Flux” value in data set [2] (setting [3]), in data set [2] (setting [4]) and in data set [2] (setting [5]) were 20.14 ng/cm^2/hr, 73.95 ng/cm^2/hr and 252.28 ng/cm^2/hr, respectively.

Regarding `CCCOc1cc(-c2nccc(C3COB(O)C3)n2)ccc1OC` (centres unmarked) [Example 212, 4-(2-(4-methoxy-3-propoxyphenyl)pyrimidin-4-yl)-1,2-oxaborolan-2-ol], the IC50 in the data set with IL-4 amounted to 103 nM; in the data set on IFNγ, 3.29 nM; in data set [1], 2.27 nM; with IL-13, 1900 nM.

Consider `CCCOc1c(OC)ccc(-c2cccc(C3COB(O)C3)n2)c1F` (centres unmarked) [Example 213, 4-(6-(2-fluoro-4-methoxy-3-propoxyphenyl)pyridin-2-yl)-1,2-oxaborolan-2-ol], for which the IC50 stood at 80.9 nM with IL-4, 3.36 nM with IFNγ, 6.32 nM in data set [1] and 1980 nM with IL-13.

Turning to `CCCOc1c(OC)ccc(-c2cncc(C3COB(O)C3)n2)c1F` (centres unmarked) [Example 215, 4-(6-(2-fluoro-4-methoxy-3-propoxyphenyl)pyrazin-2-yl)-1,2-oxaborolan-2-ol], the IC50 with IL-4 came out at 62.7 nM; in the data set with IFNγ, 2.18 nM; in data set [1], 2.58 nM; in the data set on IL-13 it was 2050 nM.

`CCOc1ccc(-c2cncc(C3COB(O)C3)c2)c(F)c1OC` (centres unmarked) [Example 217, 4-(5-(4-ethoxy-2-fluoro-3-methoxyphenyl)pyridin-3-yl)-1,2-oxaborolan-2-ol]: the IC50 with IL-4 is 20.5 nM; in the data set with IFNγ it was 10.3 nM; in data set [1] it was 5.5 nM; with IL-13 it was 2070 nM.

Regarding `CCCOc1cc(-c2cc(C3COB(O)C3)cnc2C)cnc1OC` (centres unmarked) [Example 218, 4-(6′-methoxy-2-methyl-5′-propoxy-[3,3′-bipyridin]-5-yl)-1,2-oxaborolan-2-ol], the IC50 amounted to 3.24 nM in the data set on IL-4, 2.3 nM in the data set on IFNγ, 1.45 nM in data set [1] and 2840 nM in the data set with IL-13.

Consider `CCOc1cc(-c2cc(C(F)(F)F)cc(C3COB(O)C3)n2)ccc1OC` (centres unmarked) [Example 220, 4-(6-(3-ethoxy-4-methoxyphenyl)-4-(trifluoromethyl)pyridin-2-yl)-1,2-oxaborolan-2-ol], for which the half-inhibitory concentration (IC50) was 540 nM in the data set on IL-4, 2.37 nM in the data set with IFNγ, 3.29 nM in data set [1] and 2130 nM in the data set on IL-13.

Regarding `CCOc1cc(C2COB(O)C2)nc(-c2ccc(OC)c(OCC)c2)n1` (centres unmarked) [Example 222, 4-(6-ethoxy-2-(3-ethoxy-4-methoxyphenyl)pyrimidin-4-yl)-1,2-oxaborolan-2-ol], the IC50 worked out at 1.44 nM in the data set with IL-4, 1.17 nM with IFNγ, 1.14 nM in data set [1] and 2370 nM in the data set on IL-13.

Consider `CCCOc1cc(-c2nc(OC)cc(C3COB(O)C3)n2)ccc1OC` (centres unmarked) [Example 224, 4-(6-methoxy-2-(4-methoxy-3-propoxphenyl)pyrimidin-4-yl)-1,2-oxaborolan-2-ol], for which the concentration for half-maximal inhibition (IC50) in the data set on IL-4 was 8.94 nM; in the data set with IFNγ it was 8.12 nM; in data set [1] it was 2.17 nM; in the data set on IL-13, 2490 nM.

As for `COc1ccc(-c2cccc(C3COB(O)C3)n2)c(C#N)c1OC1CCCC1` (centres unmarked) [Example 226, 2-(cyclopentyloxy)-6-(6-(2-hydroxy-1,2-oxaborolan-4-yl)pyridin-2-yl)-3-methoxybenzonitrile], the IC50 with IL-4 came out at 24.7 nM; with IFNγ, 17.8 nM; in data set [1], 8.72 nM; in the data set with IL-13, 2520 nM.

For `COc1ccc(-c2cc(C3=CB(O)OC3)ccn2)cc1OC` [Example 227, 4-(2-(3,4-dimethoxphenyl)pyridin-4-yl)-1,2-oxaborol-2(5H)-ol], the IC50 is 285 nM in the data set with IL-4, 9.16 nM with IFNγ, 7.94 nM in data set [1] and 2540 nM in the data set on IL-13.

`CCOc1cc(-c2cncc(C3=CB(O)OC3)c2)ccc1OC` [Example 229, 4-(5-(3-ethoxy-4-methoxyphenyl)pyridin-3-yl)-1,2-oxaborol-2(5H)-ol]: the IC50 in the data set with IL-4 came out at 195 nM; with IFNγ, 2.9 nM; in data set [1], 2.64 nM; with IL-13 it was 2730 nM.

With `COc1ccc(-c2cccc(C3COB(O)C3)c2)cc1OC` (centres unmarked) [Example 232, 4-(3′,4′-dimethoxy-[1,1′-biphenyl]-3-yl)-1,2-oxaborolan-2-ol], the IC50 is 197 nM with IL-4, 17.9 nM in the data set with IFNγ, 4.65 nM in data set [1] and 583 nM in the data set on IL-13.

In the case of `CCOc1cc(-c2cccc(C3COB(O)C3)n2)ccc1OC` (centres unmarked) [Example 233, 4-(6-(3-ethoxy-4-methoxyphenyl)pyridin-2-yl)-1,2-oxaborolan-2-ol], the IC50 turned out to be 104 nM with IL-4, 2.94 nM in the data set on IFNγ, 8.74 nM in data set [1] and 508 nM with IL-13.
